Measured values as given in ChEMBL document CHEMBL1136345, “Heterocyclic ketones as inhibitors of histone deacetylase” (Bioorg Med Chem Lett, 2003).
pIC50: −log10 of the molar value.

Legend:
Histone deacetylase [1] = biological target: Histone deacetylase; design: species or system Homo sapiens
Histone deacetylase [2] = test: In vitro inhibition of Histone deacetylase in K 562 erythroleukemia cells.; design: species or system Homo sapiens
Histone deacetylase [3] = test: Inhibitory activity against Histone deacetylase (HDAC) in K 562 erythroleukemia cells (Radioactivity based HDAC assay); design: species or system Homo sapiens
[4] = Half-life was determined; format: ADME; details: human
[5] = Anti-proliferative activity against MDA-435 cells mediated by HDAC inhibition; format: functional, cell-based; details: Homo sapiens, MDA435

IC50 (Histone deacetylase [3]) [nM] | Compound | IC50 (Histone deacetylase [2]) [nM] | other results
> 50000 | O=C(CCCCCCOc1ccc(-c2ccccc2)cc1)c1nc2ncccc2o1 |  | 
> 10000 | O=C(CCCCCC(=O)c1ncco1)NNc1ccc(Cl)cc1 |  | 
> 50000 | Cn1cncc1C(=O)CCCCCCOc1ccc(-c2ccccc2)cc1 |  | 
> 50000 | O=C(CCCCCCOc1ccc(-c2ccccc2)cc1)c1nc2ccccc2o1 |  | 
1830 | O=C(CCCCCCC(=O)c1ncco1)NNC(=O)c1ccc(-c2ccccc2)cc1 |  | 
> 50000 | O=C(CCCCCCOc1ccc(-c2ccccc2)cc1)c1ccccn1 |  | 
> 50000 | O=C(CCCCCCOc1ccc(-c2ccccc2)cc1)c1nccs1 |  | 
> 50000 | O=C(CCCCCCOc1ccc(-c2ccccc2)cc1)c1ncc[nH]1 |  | 
> 50000 | Cn1ccnc1C(=O)CCCCCCOc1ccc(-c2ccccc2)cc1 |  | 

Further lines, the molecule ahead of its results:

Compound | IC50 (Histone deacetylase [3]) [nM] | IC50 (Histone deacetylase [2]) [nM] | other results
CNC(=O)C(=O)CCCCCCOc1ccc(-c2ccccc2)cc1 |  |  | IC50 (Histone deacetylase [1]): 110 nM
O=C(CCCCCCC(=O)c1ncco1)Nc1cccc(-c2ccccc2)c1 |  | 60 | 
O=C(CCCCCC(=O)c1ncco1)Nc1cccc(-c2ccccc2)c1 |  | 310 | 
O=C(CCCCCCOc1ccc(-c2ccccc2)cc1)c1ncco1 |  | 1100 | half-life [4]: 10.8 min
O=C(CCCCC/C=C/c1ccc(-c2ccccc2)cc1)c1ncco1 |  | 990 | 
OC(CCCCCCOc1cccc(-c2ccccc2)c1)c1ncco1 (centres undefined) | > 50000 |  | 
O=C(CCCCCCC(=O)c1ncco1)Nc1ccc(Oc2ccccc2)cc1 |  | 580 | 
O=C(CCCCCC(=O)c1ncco1)Nc1ccc(Cl)cc1 |  | 1500 | 
O=C(CCCCCCNc1ccc2ccccc2c1)c1ncco1 |  | 430 | 
O=C(CCCCCCOc1ccc2ccccc2c1)c1ncco1 |  | 520 | 
O=C(CCCCCCOc1cccc(-c2ccccc2)c1)c1ncco1 |  | 620 | half-life [4]: 12.6 min
O=C(CCCCCCSc1ccc2ccccc2c1)c1ncco1 |  | 540 | 
O=C(CCCCCCc1nnc(-c2ccc(-c3ccccc3)cc2)o1)c1ncco1 | 250 |  | 
O=C(CCCCCC(=O)c1ncco1)NCc1ccc(Cl)cc1 |  | 6400 | 
COc1ccc(-c2csc(NC(=O)CCCCCCC(=O)c3ncco3)n2)cc1 |  | 30 | pIC50 [5]: 5.64
O=C(c1ncco1)[C@@H]1C[C@H]1CCCCOc1ccc(Oc2ccccc2)cc1 | > 50000 |  | 
O=C(CCCCCCOc1ccc(-c2ccccc2)cc1)c1nnn[nH]1 |  | 2000 | 
O=C(CCCCCCOc1ccc(-c2ccccc2)cc1)C1=NCCO1 |  | 1800 | 
O=C(NCCCCCC(=O)c1ncco1)c1cc2ccccc2[nH]1 |  | 340 | 
O=C(CCCCCCS(=O)(=O)c1ccc2ccccc2c1)c1ncco1 |  | 610 | 
O=C(NCCCCCCC(=O)c1ncco1)c1cc2ccccc2[nH]1 |  | 90 | 
O=C(CCCCCCC(=O)c1ncco1)Nc1ccc(Cl)cc1 |  | 320 | 
